Laboratory results taken from patent publication US20230416248A1, “COMPOUNDS AND USES THEREOF” (Foghorn Therapeutics Inc., priority 2020, published 2023).
pIC50: −log10 of the molar value.

What was measured:
[1] = biological target: T1, BRM (Homo sapiens, UniProt P51531); assay: ATPase catalytic activity of BRM, ADP-Glo in vitro biochemical assay; conditions: for pIC50: ADP-Glo ATPase assay, 30 nM BRM, 400 μM ATP; for Ratio* (BRG1 IC50 (μM) divided by BRM IC50 (μM)): selectivity ratio BRG1 IC50 / BRM IC50
T1 construct: made in house; host or cells: High Five insect cells
Outline: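 Recombinant BRM (30 nM) hydrolysed 400 μM ATP with 20 nM salmon sperm DNA in pH 8 Tris buffer containing 20 mM MgCl2, 50 mM NaCl, 0.1% Tween-20 and 1 mM DTT, 1 h at room temperature. ADP formed was quantified by ADP-Glo luminescence.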

[2] = biological target: T2, BRG-1 (Homo sapiens, UniProt P51532); assay: ATPase catalytic activity of BRG-1, ADP-Glo in vitro biochemical assay; conditions: ADP-Glo ATPase assay, 30 nM BRG-1, 400 μM ATP; read-out: BRG1 IC50
T2 construct: made in house; host or cells: High Five insect cells
Outline: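 BRG-1 ATPase activity was measured in vitro by ADP-Glo. After the reaction, ADP-Glo Reagent depleted unconsumed ATP (40 min, room temperature), then Kinase Detection Reagent converted product ADP to ATP (60 min, room temperature), and luciferase luminescence was read.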

T2 sequence (P51532 whole entry): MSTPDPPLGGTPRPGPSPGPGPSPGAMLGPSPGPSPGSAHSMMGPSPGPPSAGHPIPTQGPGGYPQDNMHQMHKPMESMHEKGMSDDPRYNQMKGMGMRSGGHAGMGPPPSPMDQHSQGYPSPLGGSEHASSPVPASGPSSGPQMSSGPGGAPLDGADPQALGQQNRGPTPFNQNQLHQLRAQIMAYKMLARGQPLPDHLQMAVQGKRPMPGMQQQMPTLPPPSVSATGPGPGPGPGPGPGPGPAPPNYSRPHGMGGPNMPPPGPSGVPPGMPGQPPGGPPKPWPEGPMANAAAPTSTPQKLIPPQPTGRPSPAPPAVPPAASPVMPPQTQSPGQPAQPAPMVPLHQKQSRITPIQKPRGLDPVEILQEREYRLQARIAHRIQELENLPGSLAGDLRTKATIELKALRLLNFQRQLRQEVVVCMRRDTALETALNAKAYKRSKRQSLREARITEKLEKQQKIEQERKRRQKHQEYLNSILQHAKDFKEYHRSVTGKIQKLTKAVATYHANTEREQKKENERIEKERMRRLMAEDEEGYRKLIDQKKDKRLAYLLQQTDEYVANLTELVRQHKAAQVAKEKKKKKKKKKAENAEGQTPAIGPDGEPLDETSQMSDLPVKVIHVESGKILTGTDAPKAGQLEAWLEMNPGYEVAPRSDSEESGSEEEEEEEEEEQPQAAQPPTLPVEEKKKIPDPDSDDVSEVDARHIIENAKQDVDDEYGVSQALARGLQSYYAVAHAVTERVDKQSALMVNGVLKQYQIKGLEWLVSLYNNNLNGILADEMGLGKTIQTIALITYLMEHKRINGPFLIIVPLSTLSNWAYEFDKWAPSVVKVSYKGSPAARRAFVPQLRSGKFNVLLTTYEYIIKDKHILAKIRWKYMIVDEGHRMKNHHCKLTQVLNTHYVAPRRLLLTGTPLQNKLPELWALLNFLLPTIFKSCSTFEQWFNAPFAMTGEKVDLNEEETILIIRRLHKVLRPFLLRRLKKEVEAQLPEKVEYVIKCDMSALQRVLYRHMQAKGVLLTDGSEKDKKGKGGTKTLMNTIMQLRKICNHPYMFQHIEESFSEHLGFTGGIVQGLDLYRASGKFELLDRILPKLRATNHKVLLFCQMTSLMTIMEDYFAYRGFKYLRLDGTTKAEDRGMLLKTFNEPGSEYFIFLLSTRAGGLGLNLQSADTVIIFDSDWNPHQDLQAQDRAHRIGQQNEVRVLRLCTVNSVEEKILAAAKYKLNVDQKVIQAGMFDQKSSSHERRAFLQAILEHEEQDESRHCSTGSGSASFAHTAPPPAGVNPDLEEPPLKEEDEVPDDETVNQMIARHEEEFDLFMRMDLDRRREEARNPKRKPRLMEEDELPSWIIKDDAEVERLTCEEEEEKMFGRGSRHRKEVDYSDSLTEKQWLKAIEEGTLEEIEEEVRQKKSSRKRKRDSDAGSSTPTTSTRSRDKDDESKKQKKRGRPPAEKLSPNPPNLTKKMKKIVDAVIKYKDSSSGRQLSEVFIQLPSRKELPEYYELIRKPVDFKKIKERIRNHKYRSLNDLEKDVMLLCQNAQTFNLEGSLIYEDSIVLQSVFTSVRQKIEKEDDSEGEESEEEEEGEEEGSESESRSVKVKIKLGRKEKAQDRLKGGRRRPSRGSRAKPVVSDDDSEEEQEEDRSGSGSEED
T1 sequence (P51531 whole entry): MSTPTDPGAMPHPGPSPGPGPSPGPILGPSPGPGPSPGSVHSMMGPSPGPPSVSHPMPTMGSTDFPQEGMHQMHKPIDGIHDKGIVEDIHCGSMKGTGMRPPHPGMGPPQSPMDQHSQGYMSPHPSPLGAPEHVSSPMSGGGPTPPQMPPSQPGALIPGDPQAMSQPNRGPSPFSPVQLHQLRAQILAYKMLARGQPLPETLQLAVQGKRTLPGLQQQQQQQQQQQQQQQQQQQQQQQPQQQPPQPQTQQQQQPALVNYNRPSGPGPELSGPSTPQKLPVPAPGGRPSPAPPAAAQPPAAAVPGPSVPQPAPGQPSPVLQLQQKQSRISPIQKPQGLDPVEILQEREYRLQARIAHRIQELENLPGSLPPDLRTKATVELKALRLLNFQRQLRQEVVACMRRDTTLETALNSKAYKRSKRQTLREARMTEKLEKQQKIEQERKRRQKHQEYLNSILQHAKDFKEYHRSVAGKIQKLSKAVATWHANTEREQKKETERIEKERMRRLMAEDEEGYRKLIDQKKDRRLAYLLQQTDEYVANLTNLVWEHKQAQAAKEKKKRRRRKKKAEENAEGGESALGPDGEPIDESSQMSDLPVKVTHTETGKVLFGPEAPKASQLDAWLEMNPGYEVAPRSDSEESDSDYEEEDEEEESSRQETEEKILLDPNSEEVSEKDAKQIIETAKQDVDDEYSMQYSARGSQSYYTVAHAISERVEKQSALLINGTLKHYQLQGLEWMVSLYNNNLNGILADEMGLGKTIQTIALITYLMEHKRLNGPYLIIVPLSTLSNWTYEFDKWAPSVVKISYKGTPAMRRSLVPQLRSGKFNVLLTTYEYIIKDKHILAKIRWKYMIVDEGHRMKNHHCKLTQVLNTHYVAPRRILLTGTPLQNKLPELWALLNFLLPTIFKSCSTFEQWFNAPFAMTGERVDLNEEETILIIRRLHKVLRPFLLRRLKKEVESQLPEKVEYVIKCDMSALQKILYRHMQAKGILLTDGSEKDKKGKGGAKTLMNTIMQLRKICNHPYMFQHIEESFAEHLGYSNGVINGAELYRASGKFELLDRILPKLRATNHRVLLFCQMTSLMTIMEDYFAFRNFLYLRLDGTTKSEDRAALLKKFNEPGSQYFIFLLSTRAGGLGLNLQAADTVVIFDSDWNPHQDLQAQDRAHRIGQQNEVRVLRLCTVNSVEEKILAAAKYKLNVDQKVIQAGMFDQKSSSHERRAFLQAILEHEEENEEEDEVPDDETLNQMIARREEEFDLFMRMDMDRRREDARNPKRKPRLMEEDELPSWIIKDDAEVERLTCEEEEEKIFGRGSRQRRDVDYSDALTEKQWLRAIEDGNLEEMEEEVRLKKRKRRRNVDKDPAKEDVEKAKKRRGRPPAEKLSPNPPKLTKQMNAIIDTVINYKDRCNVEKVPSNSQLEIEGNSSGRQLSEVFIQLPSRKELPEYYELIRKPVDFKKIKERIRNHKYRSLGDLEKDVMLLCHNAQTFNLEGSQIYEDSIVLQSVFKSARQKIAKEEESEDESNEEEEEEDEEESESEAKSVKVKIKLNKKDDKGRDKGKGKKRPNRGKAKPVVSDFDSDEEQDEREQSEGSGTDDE

SMILES	pIC50 [1]	Ratio* (BRG1 IC50 (μM) divided by BRM IC50 (μM)) [1]	pIC50 [2]
O=C(NCc1cc2nc(-c3cncc(C4CC4)n3)ccc2cn1)c1cc(Cl)c2c(c1)S(=O)(=O)CCOC2 [Compound 187]	6.96	24.40	5.57
O=C1CS(=O)(=O)c2cc(C(=O)NCc3cc4nc(-c5cccc(C6CC6)c5)ccc4cn3)ccc2CN1 [Compound 188]	6.54	17.42	5.30
O=C(NCc1cc2nc(-c3cccc(C4CC4)n3)cnc2cn1)c1ccc2c(c1)S(=O)(=O)CCOC2 [Compound 191]	7.22	19.73	5.93
O=C(NCc1cc2nc(-c3cn(C4COC4)nc3C3CC3)ccc2cn1)c1ccc2c(c1)S(=O)(=O)CCOC2 [Compound 194]	6.66	12.69	5.56
O=C(NCc1cc2nc(-c3cccc4c3CCN4C3COC3)ccc2cn1)c1ccc2c(c1)S(=O)(=O)CCOC2 [Compound 198]	6.65	4.34	6.01
CC(c1cccc(-c2ccc3cnc(CNC(=O)c4ccc5c(c4)S(=O)(=O)CCOC5)cc3n2)n1)C(F)F (stereo not drawn) [Compound 203]	6.81	10.23	5.80
O=C(NCc1cc2nc(-c3cccc(C4CC4)n3)ccc2cn1)c1cnc2c(c1)S(=O)(=O)CCOC2 [Compound 204]	7.25	12.01	6.17
O=C(NCc1cc2nc(-c3cccc(CC(F)F)n3)ccc2cn1)c1ccc2c(c1)S(=O)(=O)CCOC2 [Compound 205]	7.04	16.45	5.83
COCCc1ccc(C(=O)NCc2cc3nc(-c4cncc(C5CC5)n4)ccc3cn2)cc1S(C)(=O)=O [Compound 207]	6.39	12.29	5.30
O=C(NCc1cc2nc(-c3cncc(C(F)(F)F)n3)ccc2cn1)c1ccc2c(c1)S(=O)(=O)CCOC2 [Compound 209]	6.30	7.27	5.44

Stronger by pIC50 [1], values ahead:

pIC50 [1]	Ratio* (BRG1 IC50 (μM) divided by BRM IC50 (μM)) [1]	pIC50 [2]	SMILES
7.34	8.57	6.41	CN1CCc2ccc(-c3ccc4cnc(CNC(=O)c5ccc6c(c5)S(=O)(=O)CCOC6)cc4n3)nc21 [Compound 190]
8.29	6.45	7.49	COCc1ccc(C(=O)NCc2cc3nc(-c4cccc(N5C[C@@H](C)O[C@@H](C)C5)n4)ccc3cn2)cc1S(C)(=O)=O [Compound 192]
8.43	8.49	7.50	Cc1ccc(C(=O)NCc2cc3nc(-c4cccc(N5C[C@@H](C)O[C@@H](C)C5)n4)ccc3cn2)cc1S(C)(=O)=O [Compound 195]
8.09	7.31	7.23	CO[C@@H]1CCN(c2cccc(-c3ccc4cnc(CNC(=O)c5ccc6c(c5)S(=O)(=O)CCOC6)cc4n3)n2)C1 [Compound 200]
7.71	9.11	6.75	CO[C@H]1CCN(c2cccc(-c3ccc4cnc(CNC(=O)c5ccc6c(c5)S(=O)(=O)CCOC6)cc4n3)n2)C1 [Compound 201]
7.75	7.59	6.87	O=C(NCc1cc2nc(-c3cccc(N4CCC(F)(F)C4)n3)ccc2cn1)c1ccc2c(c1)S(=O)(=O)CCOC2 [Compound 202]
8.10	13.71	6.96	C[C@@H]1CN(c2cccc(-c3ccc4cnc(CNC(=O)c5ccc(C(F)F)c(S(C)(=O)=O)c5)cc4n3)n2)C[C@H](C)O1 [Compound 206]
7.37	8.84	6.42	O=C(NCc1cc2nc(-c3cccc(C4(C(F)F)CC4)n3)ccc2cn1)c1ccc2c(c1)S(=O)(=O)CCOC2 [Compound 208]
7.75	9.92	6.76	CC1(c2cccc(-c3ccc4cnc(CNC(=O)c5ccc6c(c5)S(=O)(=O)CCOC6)cc4n3)n2)CC1 [Compound 210]
8.15	3.05	7.67	C[C@@H]1CN(c2cncc(-c3ccc4cnc(CNC(=O)c5ccc6c(c5)S(=O)(=O)CCOC6)cc4c3)n2)C[C@H](C)O1 [Compound 211]
7.84	8.51	6.91	Cc1cc(-c2ccc3cnc(CNC(=O)c4ccc5c(c4)S(=O)(=O)CCOC5)cc3n2)nc(N2C[C@@H](C)O[C@@H](C)C2)c1 [Compound 212]
